Measured values from a melting point compilation (Tetko et al.; mined from patent text by program, amines drawn as free bases though some values may be those of a salt).

Structure (SMILES)	melting point [°C]
CNC(=O)CC1=CC2(CCCC2)c2ccc(Cl)cc21	190
Cc1ccccc1C1(C#N)C2CC3CC(C2)CC1C3 (configuration not stated)	80 to 81
CC(=N)NCCCCCCCCCCCCNC(C)=N	92 to 97
Cc1ccc(C2=NN(C(=O)c3cccnc3)CC2)cc1	100 to 102
CCOC(=O)NNC=Nc1nc(-c2ccc3c(c2)CCCC3)cs1	134 to 135
N#Cc1ccc(C(=O)Nc2ccc(Cl)c([N+](=O)[O-])c2)cc1	213
CC(=O)c1cc(C(C)=O)c(OCCCCC#N)cc1O	105 to 106
CCOC(=O)CC(C#N)(CC(=O)OCC)c1ccccn1	86.5 to 88
COc1cc(Cc2cnc(N)nc2N)cc(OC)c1Cl	218
O=[N+]([O-])c1cc(Cn2ccnc2)ccc1NC1CCCCC1	121
C=C(C)C(=O)Oc1ccc2c(c1)CCc1cc(OC(=O)C(=C)C)ccc1-2	116
O=c1ccsn1C(O)C(Cl)(Cl)Cl (configuration not stated)	117 to 118
S=Cc1cccc(Cl)c1Cc1ccccc1	68 to 70
CCCCCCCc1nnc(-c2ccc(O)cc2)s1	100
O=C(O)CCCCCCCCCCCCCCCCCCI	70 to 71.5
N#Cc1snc(Cl)c1Cl	84.5 to 85
CC(=Cc1ccc(-n2ccnc2)cc1)[N+](=O)[O-]	119 to 120
O=S(=O)(c1ccccc1)N1CCC(C(O)(c2ccc(F)cc2)C2CCCCC2)CC1 (configuration not stated)	106 to 109
Cn1ccnc1C(C)(C)O	128 to 129
CC1Cc2ccccc2C(O)(C2CCN(C)CC2)c2ccsc21 (configuration not stated)	177 to 178
CCCCCCCCCCCC(=O)OC1CC(c2ccccc2)NC(c2ccccc2)C1C (configuration not stated)	56 to 59
O=C1CSCN1c1cc(Cl)cc(Cl)c1	87 to 92
CCn1cc(C(=O)O)c(=O)c2cc(F)c(N3CCN4CCC3C4)nc21 (configuration not stated)	228 to 229
OCC12CN3CN(C(c4ccccc4)N(C1)C3c1ccccc1)C2c1ccccc1 (configuration not stated)	91 to 93
CCCCCN(CCC12CC3CC(CC(C3)C1)C2)C(=O)NCCCc1ccccn1	84.4 to 85.7
O=C(O)c1cc2cc(O)c(O)cc2nc1C(=O)O	> 300
O=C(Nc1ccc(C2CCCCC2)cc1)c1ncccc1O	91 to 93
NCC(c1ccc(Cl)cc1)C1CCCCCC1O (mixture of isomers)	92 to 93

Now from value to compound:

melting point [°C]	Structure (SMILES)
155 to 156	O=C(NCCOc1ccc(CC(Oc2ccc(Cl)cc2)C(=O)O)cc1)c1ccc(-c2ccccn2)cc1 (configuration not stated)
135 to 137	CCC(Oc1cccc(C(F)(F)F)c1)C(=O)OC1CC(O)C=C2C=CC(C)C(CCC3CC(O)CC(=O)O3)C21 (mixture of isomers)
250 to 251	O=C(NCc1ccccn1)c1[nH]c2ccc(Cl)cc2c1S(=O)(=O)c1ccccc1
262 to 265	Cc1c[nH]c2cc(-c3nn(C(C)c4oc5ccccc5c(=O)c4-c4cccc(F)c4)c4ncnc(N)c34)ccc12 (configuration not stated)
78 to 80	CCCc1nn(C)c2c(=O)n(CCCc3cccc(OC(C)(C)C(=O)O)c3)c(C)nc12
143 to 145	CCOC(=O)c1cc(=O)c2c(OCC(O)COc3ccc(C#N)c(OC)c3)cccc2o1 (configuration not stated)
273	Cc1nc(NC(=O)c2cnn3c(C(F)(F)F)cc(-c4ccc(C(F)(F)F)cc4)nc23)sc1S(=O)(=O)N1CCN(C)CC1
195 to 196	N#Cc1cc(-c2nc3cncnc3s2)ccc1Oc1ccccc1F
136 to 138	CCOc1ccc(-c2nc(OC)ccc2N2CCC(=O)N(c3ccc(OC)cc3)CC2)cc1C
92 to 94	CC(C)(OCc1cc2cc(C(F)(F)F)ccc2n1S(=O)(=O)c1ccc2c(c1)CCO2)C(=O)O
210 to 211	CCOC(=O)C1=C(C)NC2=C(C(=O)N(CCO)C2)C1c1ccccc1[N+](=O)[O-] (configuration not stated)
201 to 204	CCCn1c(COC)nc2c(N)nc3ccc(OCC(=O)N4CCOCC4)cc3c21
220 to 222	CNC(=O)c1ccc(-c2ccc3nnn(Cc4ccc5ncccc5c4)c3n2)cc1
200 to 201	Cn1cc(-c2ccc(C(=O)N3Cc4cccn4Cc4ccccc43)cc2)cn1
255 to 256	CS(=O)(=O)c1ccc(-c2cn[nH]c(=O)c2-c2ccc(F)cc2)cc1
258 to 259	CONC(=N)c1ccc(-c2ccc(-c3ccc(-c4ccc(C(=N)NOC)cc4)o3)o2)cc1
79.1	CSc1cc(-c2ccccc2)nc(-c2cccc(C(F)(F)F)c2)c1
138 to 143	CC(C)(C)[Si](ON1C(=O)c2ccccc2C1=O)(c1ccccc1)c1ccccc1
291 to 293	Cc1ccc(N2C(=O)NC(=O)C23CCN(Cc2ccccc2)CC3)cc1
196	Cc1nc(C(F)(F)F)ccc1/C=C/C(=O)Nc1ccc2ncsc2c1

melting point [°C]	Structure (SMILES)
163 to 164	CNC(=O)Nc1cccc(C(=O)Nc2ccccn2)c1
224	O=C(NOC1CCCCO1)c1ccc(C(=O)Nc2cccc(Nc3nc(-c4cccnc4)cs3)c2)cc1 (configuration not stated)
154 to 157	CN(C)CCCNc1ccc(NCCCN(C)C)c2c1C(=O)c1c(O)ccc(O)c1C2=O
210 to 215	CC(C)C1COCc2nc3c(N)nc4cc(O)ccc4c3n21 (configuration not stated)
173 to 177	CCC(=O)NS(=O)(=O)c1ccc2c3c(cc([N+](=O)[O-])c2c1)NCC3CCl (configuration not stated)
102 to 105	CCOC(=NC(=O)c1cccc(C)c1)N1Cc2ccccc2-c2ccccc2C1
73.9	N#CC(CCOc1ccc(Br)cc1)c1ccc(Cl)cc1Cl (configuration not stated)
275	Cc1nc2scc(C)n2c(=O)c1CCN1CCC(c2c[nH]c3ccccc23)CC1
246 to 248	Cn1c(CCCCl)nc2ccc3ccccc3c21
189	O=C(CSc1ccc(C2=NCC(c3cc(Cl)cc(Cl)c3)(C(F)(F)F)C2)cc1Cl)NCC(F)(F)F (configuration not stated)
180 to 183	O=C(O)c1cccc(CN2C(=O)N(c3ccccc3Br)Cc3cnc(Nc4ccccc4)nc32)c1
108	CCN(CC)CCOc1ccc(Nc2ncc3c(n2)N(c2cccc(CCN)c2)C(=O)N(c2ccc(Cl)cc2Cl)C3)cc1
154 to 157	Cc1ccc(S(=O)(=O)N(CC(=O)N(C)C)c2ccc(Cl)cc2C(=O)c2ccccc2Cl)cc1
129 to 131	COc1ccc2c(Cl)cc(-c3ccc(C)cc3)nc2c1
251 to 256	COc1ccccc1Oc1c(NS(=O)(=O)c2ccc(C(C)(C)C)cc2)nc(-c2ncccn2)nc1OCCOc1ccc(Br)cc1
177 to 178	CC(C)(C)c1ccc(CNC(=O)NCc2ccc(NS(C)(=O)=O)c([N+](=O)[O-])c2)cc1
91 to 93	COc1cccc(CNC(=O)c2ncc3ccccc3n2)c1
107 to 110	CCc1nc2c(cnn2CC)c(NC2CCOCC2)c1CNC(=O)c1cc(C)cc(C(=O)NCc2ccc(F)c(-c3cccc(C=O)c3)c2)c1
185 to 190	CN(C)CCOc1cnc(Nc2cc(-c3cccc(-n4ncc5cc(C(C)(C)C)cc(F)c5c4=O)c3CO)nn(C)c2=O)cn1
